Reference: US20240307353A1, “JAK1 PATHWAY INHIBITORS FOR THE TREATMENT OF ASTHMA” (Incyte Corporation, priority 2023, published 2024)

How the values were obtained:
[1] = system: cytokine production in whole blood stimulated with Dynabeads Human T-Activator CD3/CD28; experiment: Whole blood assay, plasma cytokines after CD3/CD28 stimulation (MSD multiplex); assay type: cell-based; details: 0.3 μM, 1 μM, 19 hours at 37° C., n=6
Protocol: An in vitro study was conducted to investigate the impact of Compound 1 on eosinophil and neutrophil activation and cytokine production that play a role in contributing to eosinophilic and noneosinophilic (neutrophilic) asthma endotypes. Whole blood from healthy volunteers was unstimulated (Unstim) or stimulated with Dynabeads™ Human T-Activator CD3/CD28 in the absence (0) or presence (0.3 μM, 1 μM) of Compound 1 for a total of 19 hours at 37° C. Whole blood was analyzed for cell surface activation marker CD69 gated for eosinophils or neutrophils by flow cytometry (n=12). Plasma was isolated from the whole blood and analyzed for various cytokines using a MSD multiplex platform (n=6). […] Because Compound 1 inhibits the production of Th2/Th1/Th17 cytokines and reduces activation of eosinophils and neutrophils Compound 1 provides an endotype-agnostic means to treat severe asthma.
FIGS. 2-4 depict the effect of Compound 1 on cytokine levels in a whole blood assay. Plasma was isolated from whole blood samples and analyzed for Th2 cytokines (FIGS. 2A-C: IL-4, IL-5, and IL-13 respectively); Th1/Th17 cytokines (FIGS. 3A-C: IFNγ, TNFα, and IL-22 respectively), and other inflammatory cytokines/chemokines (FIGS. 4A-B: CXCL10 and IL-6 respectively). Each symbol represents a different donor. Values from individual donors are shown, along with mean value for each treatment. Data was plotted in GraphPad PRISM v.9.3.1 and analyzed by a paired t test (*:p<0.05; **:p≤0.01; ***:p≤0.001).

[2] = system: HDM-induced severe asthma model; experiment: House dust mite (HDM)-induced severe asthma model, lung mechanics after methacholine challenge; assay type: in vivo, female BALB/c mice
Protocol: (§1) In vivo studies were conducted to test Compound 1 in two models of severe asthma. The first study conducted included an experimental house dust mite (HDM)-induced severe asthma model representative of both Th2/eosinophilic and Th1/Th17/neutrophilic asthma endotypes. The second study conducted included an ovalbumin (OVA) model of acute asthma which more closely represents a Th2/eosinophilic asthma endotype. For each model, fifty-eight female BALB/c mice were randomly and prospectively assigned to six groups, one group of six, one group of twelve, and four groups of ten animals each (see Table 3).
HDM model: On Day 0, animals in Groups 2-6 were sensitized with 50 μg of HDM in an emulsion with 150 μg of complete Freund's adjuvant (CFA) in a 100 μL volume by subcutaneous injection (SC). Animals in Groups 2-6 were challenged on Day 14 with 50 μg HDM in 40 μL saline via intra-nasal instillation (IN). Group 1 served as the naïve control group. On Days 12, 13, 14, and 15, animals in Groups 2-6 were dosed according to Table 3. […] On Day 16, animals underwent methacholine challenge with lung mechanics measurements using a flexi Vent mechanical ventilator.
(§2) . Elasticity of the lung (H) shown in FIGS. 6A-B and airway resistance in small airways and alveoli (G) shown in FIGS. 7A-B were measured using a flexiVent mechanical ventilator following challenge with 25 mg/mL methacholine. Group numbers represent the following treatments: 1) naïve; 2) diseased, vehicle treated; 3) diseased, Compound 1 (1 mg/kg); […]; and 6) diseased, positive control. Data are presented as mean±SEM. n=6-12 per group. Statistical significance between groups was determined by one-way ANOVA with Dunnett's multiple comparisons test used to compare all groups to the vehicle-control group. (*:p<0.05; **:p≤0.01).

[3] = system: OVA model of acute asthma; experiment: Ovalbumin (OVA) model of acute asthma, lung mechanics after methacholine challenge; assay type: in vivo, female BALB/c mice
Protocol: as §1
OVA model: On Day 0 and Day 7, animals in Groups 2-6 were sensitized with 20 μg of OVA and 1.5 mg Alum in 100 μL volume by intraperitoneal injection (IP). Animals in Groups 2-6 were challenged on Day 13, 14, and 15 with 20 μg OVA in 50 μL PBS via intra-nasal instillation (IN). Group I served as the naïve control group. On Days 12, 13, 14, and 15, animals in Groups 2-6 were dosed according to Table 3. On Day 16, animals underwent methacholine challenge with lung mechanics measurements using a flexiVent mechanical ventilator.
as §2

`Cc1n[nH]c(C)c1-c1cnn(C2(CC#N)CN(c3cc(F)c(C(=O)N[C@@H](C)C(F)(F)F)cc3F)C2)c1` [Compound 1, 4-[3-(cyanomethyl)-3-(3′,5′-dimethyl-1H,1′H-4,4′-bipyrazol-1-yl)azetidin-1-yl]-2,5-difluoro-N-[(1S)-2,2,2-trifluoro-1-methylethyl]benzamide] was tested. Which “Th1 and Th17/Th22 cytokines (IFNγ, TNFα, IL-22)” value [1] did it give?
Its value is “reduced Th1 and Th17/Th22 cytokines induced by T-cell activation in a concentration-dependent manner”.

And the “inflammatory cytokines/chemokines (CXCL10, IL-6)” value [1]?
The value was “reduced inflammatory cytokines/chemokines induced by T cell activation in a concentration-dependent manner”.

What about the “levels of Th2 cytokines (IL-4, IL-5, IL-13)” value [1] of the same molecule?
The value was “reduced the levels of Th2 cytokines induced by T-cell activation in a concentration-dependent manner”.

And the “elasticity of the lung (H)” value ([2]; 25 mg/mL methacholine)?
The value was “decreases”.

And the “resistance in small airways and alveoli (G)” value (shortened to “resistance”) ([2]; 25 mg/mL methacholine)?
Its value is “decreases”.

What about the “airway measures (Rrs, Ers, G, H), difference between groups” value ([2]; 10 and 30 mg/kg, Days 12-15, methacholine challenge Day 16) of the same molecule?
The value was “no significant differences”.

What about the “elasticity of the lung (H)” value ([3]; 10 mg/kg dose) of the same molecule?
Its value is “significant reduction”.

And the “resistance” value ([3]; 10 mg/kg dose)?
The value was “significant reduction”.

What about the “elasticity of the lung (H)” value ([3]; 25 mg/mL methacholine) of the same molecule?
The value was “reversed the elevation”.

And the “resistance” value ([3]; 25 mg/mL methacholine)?
The value was “reversed the elevation”.
